Assay [1] concerns the target T1, Human recombinant PDE2A (hPDE2A) (Homo sapiens, UniProt O00408).
T1 construct: made in house; host or cells: Sf9 insect cells (baculovirus)
As to the kind of experiment: In vitro assay PDE2A (SPA, 3H-cGMP). It is filed as biochemical. The settings on record: read-out: pIC50 PDE2 (converted).
Protocol: Tested compounds were dissolved and diluted in 100% DMSO to a concentration 100 fold of the final concentration in the assay. Compound dilutions (0.4 μl) were added in 384 well plates to 20 μl of incubation buffer (50 mM Tris pH 7.8, 8.3 mM MgCl2, 1.7 mM EGTA). 10 μl of hPDE2A enzyme in incubation buffer was added and the reaction was started by addition of 10 μl substrate to a final concentration of 10 μM cGMP and 0.01 μCi ^3H-cGMP. The reaction was incubated for 45 minutes at room temperature. […] After sedimentation of the beads during 30 minutes the radioactivity was measured in a Perkin Elmer Topcount scintillation counter and results were expressed as cpm. For blanc values the enzyme was omitted from the reaction and replaced by incubation buffer. Control values were obtained by addition of a final concentration of 1% DMSO instead of compound.

Assay [2] has as its target T2, Rat recombinant PDE10A (rPDE10A2) (Rattus norvegicus, UniProt Q9QYJ6).
T2 construct: made in house; host or cells: Sf9 insect cells (baculovirus)
T2 sequence (Q9QYJ6 1-794): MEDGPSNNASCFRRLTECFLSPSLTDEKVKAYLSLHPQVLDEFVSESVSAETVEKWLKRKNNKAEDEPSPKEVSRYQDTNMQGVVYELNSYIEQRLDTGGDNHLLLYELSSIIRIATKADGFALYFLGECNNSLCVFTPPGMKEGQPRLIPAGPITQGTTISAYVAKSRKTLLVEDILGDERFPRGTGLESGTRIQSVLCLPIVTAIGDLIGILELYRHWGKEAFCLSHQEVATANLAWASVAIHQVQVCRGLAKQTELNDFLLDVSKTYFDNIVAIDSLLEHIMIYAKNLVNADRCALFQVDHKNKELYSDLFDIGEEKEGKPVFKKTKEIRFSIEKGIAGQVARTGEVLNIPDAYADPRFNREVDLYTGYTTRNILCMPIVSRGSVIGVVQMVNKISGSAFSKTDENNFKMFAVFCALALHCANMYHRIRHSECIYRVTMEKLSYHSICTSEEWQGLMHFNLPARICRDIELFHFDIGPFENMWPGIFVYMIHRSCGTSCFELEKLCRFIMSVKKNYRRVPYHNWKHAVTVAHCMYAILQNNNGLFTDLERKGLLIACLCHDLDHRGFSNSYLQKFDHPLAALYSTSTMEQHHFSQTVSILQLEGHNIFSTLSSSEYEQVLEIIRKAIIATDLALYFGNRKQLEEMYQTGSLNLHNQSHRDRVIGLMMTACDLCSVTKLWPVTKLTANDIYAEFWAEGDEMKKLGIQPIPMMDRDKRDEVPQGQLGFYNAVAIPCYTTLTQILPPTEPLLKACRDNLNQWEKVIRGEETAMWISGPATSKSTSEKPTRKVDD
As to the kind of experiment: In vitro assay PDE10A (SPA, 3H-cAMP). It is filed as biochemical. To be noted: read-out: PIC50 PDE10 (converted).

The test system of assay [3] is Apomorphine-induced agitation. In words: Reversal of Apomorphine-induced Agitation in Rats (APO). In kind it is in vivo, rat. The settings on record: for PO Max effect (cumulative agitation score over 60 min) / SC Max effect (cumulative agitation score over 60 min): apomorphine 1.0 mg/kg i.v.; for PO LAD (lowest active dose) / SC LAD (lowest active dose): lowest dose at which ≥67% tested animals respond; for SC Dose at max effect / SC Max effect (cumulative agitation score over 60 min) / SC LAD (lowest active dose): subcutaneous route.
Protocol: Apomorphine (1.0 mg/kg, i.v.)-induced agitation was scored every 5 min over the first hour after injection of apomorphine. The score system was: (3) pronounced, (2) moderate, (1) slight, and (0) absent. […] For the present purpose, the cumulative agitation score over the whole 60-min observation period was used as a measure to describe the maximum effect (Max effect).

Where two headings read alike, the source gives them in different places.

T1 sequence (O00408 whole entry): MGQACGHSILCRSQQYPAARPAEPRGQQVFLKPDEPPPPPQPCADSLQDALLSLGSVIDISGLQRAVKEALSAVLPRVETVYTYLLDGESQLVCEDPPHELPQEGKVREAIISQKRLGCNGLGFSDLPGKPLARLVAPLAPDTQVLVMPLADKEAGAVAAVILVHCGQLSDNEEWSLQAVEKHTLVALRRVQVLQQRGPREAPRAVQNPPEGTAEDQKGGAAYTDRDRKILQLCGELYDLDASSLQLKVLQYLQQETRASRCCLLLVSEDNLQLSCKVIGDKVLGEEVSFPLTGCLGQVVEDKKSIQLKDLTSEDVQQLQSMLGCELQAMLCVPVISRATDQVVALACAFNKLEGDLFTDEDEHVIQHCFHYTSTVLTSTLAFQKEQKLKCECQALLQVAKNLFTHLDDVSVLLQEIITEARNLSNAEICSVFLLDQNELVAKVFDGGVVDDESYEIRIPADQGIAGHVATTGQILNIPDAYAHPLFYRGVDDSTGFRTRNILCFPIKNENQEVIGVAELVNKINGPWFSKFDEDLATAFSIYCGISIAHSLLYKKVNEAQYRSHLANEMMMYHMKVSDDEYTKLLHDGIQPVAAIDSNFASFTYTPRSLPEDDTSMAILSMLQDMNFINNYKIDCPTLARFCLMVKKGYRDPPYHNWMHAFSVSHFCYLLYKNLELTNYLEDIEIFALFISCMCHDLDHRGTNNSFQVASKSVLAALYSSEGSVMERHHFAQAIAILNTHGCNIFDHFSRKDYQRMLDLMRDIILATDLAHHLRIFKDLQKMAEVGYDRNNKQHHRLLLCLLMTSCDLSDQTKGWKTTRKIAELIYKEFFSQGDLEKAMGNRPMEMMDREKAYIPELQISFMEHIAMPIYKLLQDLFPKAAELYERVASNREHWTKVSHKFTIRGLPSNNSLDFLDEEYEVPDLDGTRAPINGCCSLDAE

Turning to `Cc1ncccc1-c1nnc2c(C)nc3ccc(OC(F)(F)F)cc3n12` [Compound B-168], the IC50 in assay [1] was 97.7 nM. In assay [2], the IC50 is 174 nM. Also, in assay [3], the PO Dose at Max Effect stood at 10 mg/kg, the “PO Max effect (cumulative agitation score over 60 min)” value stood at 16 and the PO LAD (lowest active dose) worked out at 10 mg/kg.
Take `Cc1nc2ccc(C(=O)N(C)Cc3ccccc3)cc2n2c(-c3ccccc3)nnc12` [Compound B-104]: in assay [1], the IC50 was 19.1 nM. Also, the IC50 in assay [2] is 204 nM. In assay [3], the SC Dose at max effect turned out to be 2.5 mg/kg, the “SC Max effect (cumulative agitation score over 60 min)” value is given as 21 and the SC LAD (lowest active dose) is more than 2.5 mg/kg.
The corresponding values for `Cc1nc2ccc(CN3CCC(F)CC3)cc2n2c(-c3ccccc3Cl)nnc12` [Compound B-61] are 5.5 nM, 20 nM, 10 mg/kg, 15 and 10 mg/kg.
In the case of `CCNC(=O)c1ccc2nc(C)c3nnc(-c4ccccc4OC)n3c2c1` [Compound B-78], the IC50 in assay [1] was 7.59 nM. The IC50 in assay [2] was 93.3 nM. In addition, in assay [3], the PO Dose at Max Effect amounted to 10 mg/kg, the “PO Max effect (cumulative agitation score over 60 min)” value worked out at 21 and the PO LAD (lowest active dose) is more than 10 mg/kg.
With `Cc1nc2ccc(C(=O)NCc3ccccn3)cc2n2c(-c3cc(F)ccc3Cl)nnc12` [Compound B-39], the IC50 in assay [1] was 1 nM. For the same compound, the IC50 in assay [2] was 24 nM. In assay [3], the PO Dose at Max Effect was found to be 10 mg/kg, the “PO Max effect (cumulative agitation score over 60 min)” value amounted to 21 and the PO LAD (lowest active dose) was more than 10 mg/kg.
For the compound `COCCNc1ccc2nc(C)c3nnc(-c4ccccc4Cl)n3c2c1` [Compound B-67], in assay [1], the IC50 is 6.17 nM. In addition, in assay [2], the IC50 was 15.5 nM. Further, in assay [3], the PO Dose at Max Effect amounted to 10 mg/kg, the “PO Max effect (cumulative agitation score over 60 min)” value is reported as 21 and the PO LAD (lowest active dose) was more than 10 mg/kg.
`C=Cc1ccc2nc(C)c3nnc(-c4ccccc4Cl)n3c2c1` [Compound B-14, 1-(2-Chlorophenyl)-8-ethenyl-4-methyl[1,2,4]triazolo[4,3-a]quinoxaline]: in assay [1], the IC50 was 7.08 nM. The IC50 in assay [2] was 37.2 nM. Further, in assay [3], the PO Dose at Max Effect is 10 mg/kg, the “PO Max effect (cumulative agitation score over 60 min)” value is 21 and the PO LAD (lowest active dose) was more than 10 mg/kg.
As to `Cc1nc2ccc(C(O)C(F)(F)F)cc2n2c(-c3ccccc3Cl)nnc12` (stereo not shown) [Compound B-21, 1-[1-(2-Chlorophenyl)-4-methyl[1,2,4]triazolo[4,3-a]quinoxalin-8-yl]-2,2,2-trifluoroethanol], the IC50 in assay [1] is 6.46 nM. The IC50 in assay [2] is 41.7 nM. For the same compound, in assay [3], the PO Dose at Max Effect was 10 mg/kg, the “PO Max effect (cumulative agitation score over 60 min)” value came to 24 and the PO LAD (lowest active dose) was more than 10 mg/kg.
`Cc1nc2ccc(C(=O)NC3CCN(C)CC3)cc2n2c(-c3ccccc3Cl)nnc12` [Compound B-47]: the IC50 in assay [1] is 2.04 nM. In addition, the IC50 in assay [2] was 145 nM. In addition, in assay [3], the SC Dose at max effect stood at 10 mg/kg, the “SC Max effect (cumulative agitation score over 60 min)” value is recorded as 22 and the SC LAD (lowest active dose) is more than 10 mg/kg.
The corresponding values for `Cc1nc2ccc(OCCc3ccccn3)cc2n2c(-c3ccccc3Cl)nnc12` [Compound B-15, 1-(2-Chlorophenyl)-4-methyl-8-(2-pyridin-2-ylethoxy) [1,2,4]triazolo[4,3-a]quinoxaline] are 8.71 nM, 16.2 nM, 10 mg/kg, 10 and 2.5 mg/kg.
On to `Cc1nc2cc(OCCc3ccccn3)ccc2n2c(-c3ccccc3Cl)nnc12` [Compound B-139], for which the IC50 in assay [1] was 34.7 nM. The IC50 in assay [2] is 63.1 nM. In addition, in assay [3], the PO Dose at Max Effect turned out to be 10 mg/kg, the “PO Max effect (cumulative agitation score over 60 min)” value is given as 22 and the PO LAD (lowest active dose) is more than 10 mg/kg.
The corresponding values for `Cc1nc2ccc(C(=O)NCc3ccccn3)cc2n2c(-c3ccc(Cl)cc3Cl)nnc12` [Compound B-108] are 20.4 nM, 36.3 nM, 10 mg/kg, 19 and more than 10 mg/kg.
With `Cc1nc2ccc(CN3CCN(C)CC3)cc2n2c(-c3ccccc3Cl)nnc12` [Compound B-73], the IC50 in assay [1] was 6.76 nM. In addition, the IC50 in assay [2] (-log IC50 expressed in mol/L, rPDE10A2, 60 nM cAMP) was 67.6 nM. In assay [3], the SC Dose at max effect was determined as 10 mg/kg, the “SC Max effect (cumulative agitation score over 60 min)” value came to 19 and the SC LAD (lowest active dose) was determined as 10 mg/kg.
With `CCOc1ccc(Cl)c(-c2nnc3c(C)nc4ccc(CN5CCN(C)CC5)cc4n23)c1` [Compound B-145], in assay [1], the IC50 was 40.7 nM. Further, in assay [2], the IC50 was 240 nM. In assay [3], the SC Dose at max effect was found to be 10 mg/kg, the “SC Max effect (cumulative agitation score over 60 min)” value was 22 and the SC LAD (lowest active dose) was more than 10 mg/kg.
On to `Cc1ncccc1-c1nnc2c(C)nc3ccc(Br)cc3n12` [Compound B-131], for which the IC50 in assay [1] is 29.5 nM. The IC50 in assay [2] is 132 nM. In assay [3], the PO Dose at Max Effect stood at 10 mg/kg, the “PO Max effect (cumulative agitation score over 60 min)” value worked out at 17 and the PO LAD (lowest active dose) is 10 mg/kg.
`Cc1nc2ccc(NCCN3CCOCC3)cc2n2c(-c3ccccc3Cl)nnc12` [Compound B-71]: the IC50 in assay [1] is 6.31 nM. Further, the IC50 in assay [2] was 19.1 nM. Further, in assay [3], the SC Dose at max effect stood at 10 mg/kg, the “SC Max effect (cumulative agitation score over 60 min)” value is recorded as 15 and the SC LAD (lowest active dose) was 10 mg/kg.
On to `Cc1nc2ccc(C(=O)NCc3ccncc3)cc2n2c(-c3ccccc3)nnc12` [Compound B-83], for which, in assay [1], the IC50 was 9.77 nM. For the same compound, the IC50 in assay [2] was 102 nM. Also, in assay [3], the SC Dose at max effect came out at 2.5 mg/kg, the “SC Max effect (cumulative agitation score over 60 min)” value was 29 and the SC LAD (lowest active dose) is more than 10 mg/kg.
`CCOc1ccc(Cl)c(-c2nnc3c(C)nc4ccc(CN5CCC(F)CC5)cc4n23)c1` [Compound B-140]: the IC50 in assay [1] is 34.7 nM. The IC50 in assay [2] was 282 nM. In assay [3], the SC Dose at max effect turned out to be 10 mg/kg, the “SC Max effect (cumulative agitation score over 60 min)” value is reported as 24 and the SC LAD (lowest active dose) is more than 10 mg/kg.
Take `Cc1cncc(-c2nnc3c(C)nc4ccc(Br)cc4n23)c1` [Compound B-154]: the IC50 was 52.5 nM in assay [1] and 380 nM in assay [2].
For `COc1ccc2nc(C)c3nnc(-c4cnccc4C)n3c2c1` [Compound B-173] the same measures were 135 nM and 977 nM.
Take `COc1ccc(Cl)c(-c2nnc3c(C)nc4ccc(Br)cc4n23)c1` [Compound B-69]: the IC50 in assay [1] is 6.17 nM; in assay [2], 77.6 nM.
Consider `CCCCOc1ccc(Cl)c(-c2nnc3c(C)nc4ccc(CN5CCC(O)CC5)cc4n23)c1` [Compound B-105], for which the IC50 in assay [1] is 19.1 nM; in assay [2], 1450 nM.
For `CCCOc1ccc(Cl)c(-c2nnc3c(C)nc4ccc(CN5CCC(F)CC5)cc4n23)c1` [Compound B-135] the same measures were 30.2 nM and 589 nM.
`CCOC(=O)c1ccc2c(c1)nc(C)c1nnc(-c3ccccc3Cl)n12` [Compound B-1b, ethyl 1-(2-chlorophenyl)-4-methyl[1,2,4]triazolo[4,3-a]quinoxaline-7-carboxylate]: the IC50 is 51.3 nM in assay [1] and 447 nM in assay [2].
As for `CCCOc1ccc(Cl)c(-c2nnc3c(C)nc4ccc(CN5CCN(C)CC5)cc4n23)c1` [Compound B-137], the IC50 is 33.1 nM in assay [1] and 1000 nM in assay [2].
For `CCCOc1ccc(Cl)c(-c2nnc3c(C)nc4ccc(N5CCN(C)CC5)cc4n23)c1` [Compound B-117] the same measures were 25.1 nM and 912 nM.
The corresponding values for `Cc1nc2ccc(N3CCN(C)CC3)cc2n2c(-c3cc(OC(C)C)ccc3Cl)nnc12` [Compound B-115] are 24.5 nM and 1120 nM.
As to `Cc1nc2ccc(CN3CCCC3)cc2n2c(-c3cncc(OCC4CC4)c3)nnc12` [Compound B-208], the values for the IC50 in assay [1] and in assay [2] were 275 nM and more than 10000 nM, respectively.
For `Cc1nc2ccc(NC3CCN(C)CC3)cc2n2c(-c3ccccc3Cl)nnc12` [Compound B-147] the same measures were 44.7 nM and 87.1 nM.

(Values after patent US10604523B2, “1-aryl-4-methyl-[1,2,4]triazolo[4,3-a]quinoxaline derivatives” (Janssen Pharmaceutica NV, priority 2011, dated 2020).)
